Reference: patent publication US9642373B2, “Insecticidal compositions and methods of using same” (Woodstream Corporation, priority 2004, dated 2017)

Test system: insects
Test: Previous experiments, treatment of insects with 1% SLS alone (data not shown)
Type: in vivo
Settings: 300 second time period used in testing

Question: How did the Kill time turn out when CCCCCCCCCCCCOS(=O)(=O)[O-].[Na+] [1% SLS, sodium lauryl sulfate] was run?
Answer: Its Kill time is over 300 s.
